Reference: patent publication US8536227B2, “Modulators of protein kinase signaling” (Novotyr Therapeutics Ltd., priority 2008, dated 2013)

Experiments:
[1] = system: Human ovary cancer A2780 cells xenografts; assay: Inhibition of ovarian A2780 tumor growth in vivo (xenograft); set-up: species or system Nude:Hsd mice; conditions: A2780 xenograft in nude mice
Description: Groups were composed of 7-8 mice per group.
The procedure was followed for the A2780 ovary cancer cell in-vivo study with the following modifications:
The Veh group received PBS. The CDDP group received 8 mg/kg CDDP (Cisplatin) twice a week.

[2] = system: IGF1R related cell signaling in human breast cancer MCF7 cells; conditions: FIG. 15; for IGF1-induced tyrosine phosphorylation of IRS1: 50 ng/ml IGF-1 stimulation
Description: (§2) Tyrosine autophosphorylation of the β-subunit of IGF1R as well as downstream signaling induced by IGF1R were assayed in human breast cancer MCF7 cells and in melanoma A375 cells. Cells were seeded in 6-well plates (250,000 cells/well) and 24 hours later medium was replaced by serum-free medium (RPMI supplemented with 100 units/ml penicillin and 100 μg/ml streptomycin). Following 20 hours of serum-starvation, medium was replaced with serum-free medium containing various concentrations of the inhibitors in 0.1% DMSO for an additional 4-5 hours. […] Equal amounts of protein per lane were separated by 8% SDS-PAGE and transferred to a nitrocellulose membrane (Sartorius AG). […] Detection was performed with horseradish peroxidase-conjugated secondary antibody using the ECL system. Blots were then stripped of antibodies, blocked with TBST with 5% low fat milk and re-probed with antibodies detecting both the phosphorylated and the non-phosphorylated corresponding proteins e.g. IGF1Rβ, IRS1, PKB, and ERK. Anti-actin antibodies served as control.
(§3) In addition, lysates were prepared from cells exposed to inhibitors at various concentrations for 24 hours in the presence or the absence of FCS without stimulation. Lysate preparation and western blot were performed as described above.

[3] = system: Human melanoma A375 cells xenografts; conditions: A375 xenograft in nude mice, IP 50 mg/kg daily or 100 mg/kg every other day
Description: Human melanoma A375 cells (ATCC, 2×10^6 cells per mouse) were injected subcutaneously into the flank of Nude:Hsd mice. Eight days later, when tumors were formed, mice were divided into 3 groups with similar average tumor size of 120 mm^3. […] The Veh group received daily 2% EtOH, 6% Tween-80 in DDW at volume of 10 ml/kg. Groups were composed of 7-8 mice per group. The length (l) and the width (w) of the tumors were measured twice a week, as well as the mouse body weight. The volumes of the tumors were calculated as follows: v=lw^2/2. Graphs present average volumes of the tumors versus days following treatment initiation.
The mice were treated with daily or alternate day IP injections, at the specified doses.

A375 cells = assay: cells; conditions: Homo sapiens, A-375, 168 h, read-out: CF (colony formation in soft agar) IC50
Description: (§1) Suspensions of separated A375 and U138MG cells were plated in 50 μl growth medium containing 0.3% agar on top of a 100 μl layer of growth medium containing 1% agar in 96-well plates. Growth medium (50 μl) supplemented with inhibitors at various concentrations was added on top. Six to seven days after plating, colonies were stained with 0.5% MTT for 4 hours, and dye was then extracted by the addition of 100 μl dissolving buffer, containing 5 gr sodium dodecyl sulfate, 8.75 ml DDW, 12.5 ml dimethyl formamide, 0.5 ml acetic acid and 0.07 ml HCl. Following incubation overnight at 37° C., optical density values were read at 570 nm in ELISA plate reader. The data was analyzed in Microsoft Excel, using the vehicle control as 100% proliferation. The assays were performed in triplicates. The values of IC50 were derived from the dose-dependent growth curves obtained.

U138MG cells = assay: cells; conditions: Homo sapiens, U138-MG, 168 h, read-out: CF (colony formation in soft agar) IC50
Description: as §1

[4] = system: IGF1R related cell signaling in human melanoma A375 cells; conditions: FIGS. 14 and 16; for IGF1-induced tyrosine phosphorylation of IRS1: 50 ng/ml IGF-1 stimulation
Description: as §2, §3

| SMILES | inhibition of ovarian tumor growth ([1]; 8 mg/kg twice a week) [%] | IGF1-induced tyrosine phosphorylation of IRS1 [2] | serine phosphorylation of IRS1 (pS636/639-IRS1) and IRS1 level [2] | inhibition of melanoma tumor growth [3] [%] | inhibition of ovarian tumor growth ([1]; IP daily 25 mg/kg in PBS) [%] | IC50 (A375 cells) [nM] | IC50 (U138MG cells) [nM] | IGF1-induced tyrosine phosphorylation of IRS1 [4] | serine phosphorylation of IRS1 (pS636/639-IRS1) and IRS1 level [4] |
| --- | --- | --- | --- | --- | --- | --- | --- | --- | --- |
| [NH2][Pt]([NH2])([Cl])[Cl] [CDDP, Cisplatin, reference compound] | 14 |  |  |  |  |  |  |  |  |
| Oc1cc(/C=C/C(=S)NCc2cc(O)c(O)c(O)c2Br)cc(Br)c1O [Compound 4] |  | inhibited | induce serine phosphorylation of IRS1, followed by its degradation |  |  |  |  |  |  |
| Oc1cc(CNC(=S)/C=C/c2ccc(O)c(O)c2Br)cc(O)c1O [Compound 5] |  | inhibited | induce serine phosphorylation of IRS1, followed by its degradation | 70 | 45 | 400 | 2600 | inhibited | induce serine phosphorylation of IRS1, followed by its degradation |
| Oc1cc(Br)c(/C=C/C(=S)NCc2cc(O)c(O)c(O)c2)cc1O [Compound 6] |  |  |  |  |  |  |  | inhibited | induce serine phosphorylation of IRS1, followed by its degradation |
